# “Also recorded” adds a separate entry of the source.
# Tests used:
# exosomal miR-195-5p = assay: brain and serum exosomal miR-195-5p levels in mice treated with synj1-lowering agents; format: in vivo, mouse; conditions: for serum exosomal miR-195 levels: treated 5×FAD mice versus vehicle controls, N=6-8/group; for brain exosomal miR-195-5p levels: treated mice versus controls
# Method: As disclosed herein, a study was performed to examine exosomal fractions of brain and serum samples of synj1 haploinsufficiency mice (ApoE3 synj1^+/− and ApoE4 synj1^+/−) as well as of mice treated with synj1-lowering agents (SynaptoCpd #9 and Cpd #6). Exosomes were purified using sucrose gradient fractionation methods and the purity of exosome fractions were evaluated by western blot analysis of exosomal protein markers such as ALIX, and uptake studies of fluorescence tagged exosomes by human iPSC-derived astrocyte cultures. […] In addition, serum exosomal miR-195-5p levels were positively correlated with brain exosomal miR-195-5p levels and cognitive performance (NOR preference index and Y maze SAP scores), and reversely correlated with brain insoluble pTau and synj1 protein levels in drug-treated mouse cohorts (FIG. 19C).
# ApoE receptors = assay: miR-195 levels in ApoE-/- neurons treated with ApoE3-CM or ApoE4-CM in the presence of RAP; format: cell-based, mouse; conditions: N=3/group
# Method: Mouse Neuronal and human iPSC culture. Primary cortical neurons were cultured (Zhu L et al., Proc Natl Acad Sci USA 2015, and Zhu L et al., J Biol Chem 2013) before being fixed and stained for confocal microscopy analysis (Zeiss LSM) (Berg I et al., Nat Protoc 2010). In some conditions, bovine serum albumin (BSA) or receptor-associated protein (RAP) was included in the cultured media (N=3/group). Alternatively, cultured neurons were transfected with adeno-associated virus 2 (AAV2)-containing miR-195-5p or miR-374 or scramble controls for 5 days before subjected to analysis. […]
# Statistical analysis. […] Levels of miR-195-5p and miR-374 were normalized to U6 and RNU6B (internal controls) while synj1 mRNA normalized to GAPDH and 18s, and then expressed as Log2fold of changes when compared to controls. Levels of synj1, dyn1, pTau, Tau, and holoAPP were normalized to β-actin levels and expressed as a percentage of the control. Absolute Aβ42, Aβ40, pTau, Tau, and ApoE concentrations were quantitatively determined by ELISA and expressed as a percentage of the control. […] Pearson correlation coefficients were calculated to determine the linear relationship between the two variables. […]
miR-195 levels (ApoE receptors; ApoE4 CM+RAP (ApoE4 CM+BSA −3.193±0.144)) [log2FC],miR-195 levels (ApoE receptors; RAP in the presence of ApoE3-CM) [log2FC],Compound,serum exosomal miR-195 levels (exosomal miR-195-5p),brain exosomal miR-195-5p levels (exosomal miR-195-5p)
,,COCCOC(=O)C1=C(C)NC(C)=C(C(=O)OC(C)C)C1c1ccc(C(F)(F)F)cc1 (stereo not drawn) [Cpd #6],much higher; also recorded: significantly elevated,much higher
,,COCCOC(=O)C1=C(C)NC(C)=C(C(=O)OC(C)C)C1c1ccc(C(C)(C)C)cc1 (stereo not drawn) [Cpd #9],much higher; also recorded: significantly elevated,much higher
−2.678±0.054,−1.648±0.125,"RAP: ApoE-receptor associated protein, an inhibitor of ApoE receptors",,

# Source: patent US20240301408A1, “MICRORNA 195 COMPOSITIONS AND METHODS FOR TREATING COGNITIVE IMPAIRMENT” (UNITED STATES GOVERNMENT AS REPRESENTED BY THE DEPARTMENT …, priority 2021, published 2024)
